Measurements from patent publication US12265082B2, “Detecting microbial infection in wounds” (SYNOVO GMBH, priority 2016, dated 2025).
Residues, ends and D or L forms follow the SMILES beside them. *: point of attachment. X5 = 4‑(N-piperazino)phenyl‑bis(4-dimethylaminophenyl)carbenium, CN(C)c1ccc([C+](c2ccc(N(C)C)cc2)c2ccc(N3CCN(*)CC3)cc2)cc1; X9 = CN(C)c1ccc([C+](c2ccc(N(C)C)cc2)c2ccc(N3CCN(*)CC3)cc2)cc1

Tests used:
elastase = experiment: Treatment with elastase, released dye fragment found by MS-analysis (synthesis examples); type: biochemical; settings: elastase species not stated
[1] = Color change of allyl sulfophthalein dyes with pH, base or ammonia; type: physicochemical
[2] = molecular target: pancreatic porcine elastase (Sus scrofa, UniProt P00772); experiment: Enzyme hydrolysis of substrates by pancreatic porcine elastase, cleavage products by ion trap MS; settings: mass peak at m/z=484
Sequence of pancreatic porcine elastase (P00772 27-266): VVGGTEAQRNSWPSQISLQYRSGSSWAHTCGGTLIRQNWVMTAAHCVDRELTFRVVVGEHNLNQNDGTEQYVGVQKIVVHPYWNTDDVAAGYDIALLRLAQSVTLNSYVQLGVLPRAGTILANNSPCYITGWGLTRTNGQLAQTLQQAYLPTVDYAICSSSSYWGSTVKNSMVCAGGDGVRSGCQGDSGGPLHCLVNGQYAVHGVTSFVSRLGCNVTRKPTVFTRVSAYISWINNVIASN
Description: (§1) Appearance of the assay mixture was either a clear solution, a suspension or a gel, depending on the properties of the enzyme substrate. Incubation was performed at 37° C. After 3 and 20 h, 10 μL samples were taken and the enzyme was denatured by addition of 10 μL MeOH to each sample. After mixing and incubation at −20° C. for 20 min the samples were centrifuged at 13.000 rpm for 10 min. Each assay included a control without enzyme, containing 1 mg/mL to 5 mg/mL substrate and analysis was performed in the same way and in parallel to the enzyme-containing assays. The supernatant after MeOH precipitation was analyzed via ion trap MS, either [M+H]+ or [M−H]−, depending on the properties of the molecule and the expected cleavage products.

[3] = molecular target: T1, human elastase from leucocytes (Homo sapiens, UniProt P08246); experiment: Enzyme hydrolysis of substrates by human elastase from leucocytes, cleavage products by ion trap MS; settings: mass peak at m/z=484
T1 sequence (P08246 30-267): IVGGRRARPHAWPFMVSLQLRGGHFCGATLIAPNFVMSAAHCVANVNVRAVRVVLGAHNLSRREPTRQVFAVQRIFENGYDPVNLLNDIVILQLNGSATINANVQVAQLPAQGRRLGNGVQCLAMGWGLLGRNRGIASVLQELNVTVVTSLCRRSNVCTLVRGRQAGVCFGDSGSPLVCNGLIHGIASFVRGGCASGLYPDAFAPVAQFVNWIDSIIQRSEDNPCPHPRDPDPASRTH
Description: as §1

MPO = molecular target: T2, MPO (Homo sapiens, UniProt P05164); experiment: Reaction of methoxy aniline derivative as substrate of MPO; type: biochemical
T2 sequence (P05164 49-745): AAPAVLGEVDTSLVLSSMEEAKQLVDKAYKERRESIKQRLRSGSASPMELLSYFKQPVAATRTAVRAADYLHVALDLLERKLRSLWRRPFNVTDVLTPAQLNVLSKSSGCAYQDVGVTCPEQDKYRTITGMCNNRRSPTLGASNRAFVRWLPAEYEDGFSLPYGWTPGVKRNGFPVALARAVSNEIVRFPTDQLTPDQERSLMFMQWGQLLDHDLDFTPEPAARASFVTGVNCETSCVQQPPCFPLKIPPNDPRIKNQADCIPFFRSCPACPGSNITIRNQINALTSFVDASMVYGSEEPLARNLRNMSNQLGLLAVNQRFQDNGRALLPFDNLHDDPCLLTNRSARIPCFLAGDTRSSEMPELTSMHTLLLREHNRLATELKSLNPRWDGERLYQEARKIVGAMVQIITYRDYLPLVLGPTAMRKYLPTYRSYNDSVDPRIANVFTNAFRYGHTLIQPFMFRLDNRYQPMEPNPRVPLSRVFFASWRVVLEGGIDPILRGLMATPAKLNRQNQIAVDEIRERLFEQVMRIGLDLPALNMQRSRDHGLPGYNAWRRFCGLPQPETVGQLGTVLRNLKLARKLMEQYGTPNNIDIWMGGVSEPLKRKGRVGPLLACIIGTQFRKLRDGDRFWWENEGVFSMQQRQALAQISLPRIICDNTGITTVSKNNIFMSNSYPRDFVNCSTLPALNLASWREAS
Description: The ideal ratio by mass is circa 2:8 aniline: product of example 10. The most efficient reaction occurs when the divalent anion is sulphuric acid, however, disulfonic substituted aromatic systems and phosphoric acid can also be used with diminished rate. HC1 provides only limited reaction. On reaction, one of the products of MPO oxidation appears to be the dimer of the two aniline components (see FIG. 13).

| Molecule | release of dye fragment on treatment with elastase (elastase) | color change with pH / base / ammonia [1] | other results |
| --- | --- | --- | --- |
| Fmoc-AAPF-aminoethyl-(Remazol Black B)-(N′-acetyl)-ethylamide [Example 53] | yield the mono-acetylated-Remazol Black B-amino derivative | – | – |
| C=CCOc1ccc(C2(c3ccc(O)c(Cl)c3)OS(=O)(=O)c3ccccc32)cc1Cl (centres unmarked) [Example 95, O-Allyl Chlorophenol Red] | – | no longer changed color with pH | – |
| Bis-(4-dimethylaminophenyl)-(4-[4-N-{6-N-valinoyl)aminohexanoyl}]piperazinophenyl)-carbenium ion [Example 72] | releases no Ahx-CV | – | – |
| CMC 9M31F-AAPFA-RBB [Example 54] | release of the dye | – | – |
| C-Allyl Bromophenol Red [Example 97] | – | color changed with ammonia to violet | – |
| CC(N)C(=O)NC(C)C(=O)N1CCCC1C(=O)NC(C(=O)NC(C)C(=O)N1CCN(c2ccc([C+](c3ccc(N(C)C)cc3)c3ccc(N(C)C)cc3)cc2)CC1)C(C)C (stereo not drawn) [Example 71, 4-([4-{H-Ala-Ala-Pro-Val-Ala}[SEQ ID NO: 28]amido N-piperazino]phenyl)-bis-(4-dimethyl-aminophenyl)-carbenium ion] (H-AAPVA-X9; configuration not given here) | released A-CV | – | – |
| 4-([4-{H-Ala-Ala-Pro-Val-Ala}amido N-piperazino]phenyl)-bis-(4-dimethyl-aminophenyl)-carbenium ion polyacrylamide (H-AAPVA-X5; also: polyacrylamide) [Example 71e] | – | – | release of A-CV on treatment with porcine elastase [2]: releases A-CV; release of A-CV on treatment with human elastase [3]: releases A-CV |
| CCCCCCCCCCCCC(O)CNc1cc(OC)c(NC(=O)c2ccccc2)cc1OC (racemic) [Example 10, N-(1-[2-Hydroxy]Tetradecanyl) Fast Blue RR (N-4-(1,3-Dimethoxy-2-N-Benzoylamidophenyl)-N′-Rac-(2-Hydroxy-n-Tetradecyl)-Amine)] | – | – | reaction as substrate of MPO (MPO): can be a direct substrate of MPO |
| C-Allyl Chlorophenol Red [Example 96] | – | changed color when treated with base to deep violet | – |
| CMC 9M31F-AAPF-RBB [Example 55] | release of the dye | – | – |
